Format in all cases: functional
Details in all cases: read-out: GI

The subject of one assay is UACC-257. Kind of assay: Cytotoxicity against human UACC-257 cells assessed as growth inhibition at 10 uM after 48 hrs by sulforhodamine B assay. (In general: The SRB assay estimates cell density from bound dye.)
The next assay concerns UO-31. Kind of assay: Cytotoxicity against human UO-31 cells assessed as growth inhibition at 10 uM after 48 hrs by sulforhodamine B assay.
The test system of the next assay is MCF7. Kind of assay: Cytotoxicity against human MCF7 cells assessed as growth inhibition at 10 uM after 48 hrs by sulforhodamine B assay.
Another assay concerns HL-60(TB). Kind of assay: Cytotoxicity against human HL-60(TB) cells assessed as growth inhibition at 10 uM after 48 hrs by sulforhodamine B assay.
The next assay deals with K562. Kind of assay: Cytotoxicity against human K562 cells assessed as growth inhibition at 10 uM after 48 hrs by sulforhodamine B assay.
For a further assay, the system named is MOLT-4. Kind of assay: Cytotoxicity against human MOLT-4 cells assessed as growth inhibition at 10 uM after 48 hrs by sulforhodamine B assay.
A further assay has as its system SR. Kind of assay: Cytotoxicity against human SR cells assessed as growth inhibition at 10 uM after 48 hrs by sulforhodamine B assay.
In another assay the test system is A549. Kind of assay: Cytotoxicity against human A549 cells assessed as growth inhibition at 10 uM after 48 hrs by sulforhodamine B assay.
A further assay deals with HOP-62. Kind of assay: Cytotoxicity against human HOP-62 cells assessed as growth inhibition at 10 uM after 48 hrs by sulforhodamine B assay.
For another assay, the system named is HOP-92. Kind of assay: Cytotoxicity against human HOP-92 cells assessed as growth inhibition at 10 uM after 48 hrs by sulforhodamine B assay.
The next assay relates to NCI-H23. Kind of assay: Cytotoxicity against human NCI-H23 cells assessed as growth inhibition at 10 uM after 48 hrs by sulforhodamine B assay.
The test system of another assay is HCT-116. Kind of assay: Cytotoxicity against human HCT-116 cells assessed as growth inhibition at 10 uM after 48 hrs by sulforhodamine B assay.
The subject of the next assay is SF-268. Kind of assay: Cytotoxicity against human SF-268 cells assessed as growth inhibition at 10 uM after 48 hrs by sulforhodamine B assay.
A further assay relates to SF-295. Kind of assay: Cytotoxicity against human SF-295 cells assessed as growth inhibition at 10 uM after 48 hrs by sulforhodamine B assay.
The subject of the next assay is SF-539. Kind of assay: Cytotoxicity against human SF-539 cells assessed as growth inhibition at 10 uM after 48 hrs by sulforhodamine B assay.
The subject of another assay is SNB-19. Kind of assay: Cytotoxicity against human SNB-19 cells assessed as growth inhibition at 10 uM after 48 hrs by sulforhodamine B assay.
The subject of another assay is SNB-75. Kind of assay: Cytotoxicity against human SNB-75 cells assessed as growth inhibition at 10 uM after 48 hrs by sulforhodamine B assay.
The subject of another assay is U-251. Kind of assay: Cytotoxicity against human U-251 cells assessed as growth inhibition at 10 uM after 48 hrs by sulforhodamine B assay.
Another assay deals with LOX IMVI. Kind of assay: Cytotoxicity against human LOX IMVI cells assessed as growth inhibition at 10 uM after 48 hrs by sulforhodamine B assay.
The test system of the next assay is UACC-62. Kind of assay: Cytotoxicity against human UACC-62 cells assessed as growth inhibition at 10 uM after 48 hrs by sulforhodamine B assay.
The subject of the next assay is OVCAR-8. Kind of assay: Cytotoxicity against human OVCAR8 cells assessed as growth inhibition at 10 uM after 48 hrs by sulforhodamine B assay.
For another assay, the system named is NCI/ADR-RES. Kind of assay: Cytotoxicity against human NCI-ADR-RES cells assessed as growth inhibition at 10 uM after 48 hrs by sulforhodamine B assay.
In the next assay the test system is 786-0. Kind of assay: Cytotoxicity against human 786-0 cells assessed as growth inhibition at 10 uM after 48 hrs by sulforhodamine B assay.
In another assay the test system is ACHN. Kind of assay: Cytotoxicity against human ACHN cells assessed as growth inhibition at 10 uM after 48 hrs by sulforhodamine B assay.
The next assay deals with CAKI-1. Kind of assay: Cytotoxicity against human CAKI-1 cells assessed as growth inhibition at 10 uM after 48 hrs by sulforhodamine B assay.
In a further assay the test system is SN12C. Kind of assay: Cytotoxicity against human SN12C cells assessed as growth inhibition at 10 uM after 48 hrs by sulforhodamine B assay.
Another assay concerns MDA-MB-231. Kind of assay: Cytotoxicity against human MDA-MB-231 cells assessed as growth inhibition at 10 uM after 48 hrs by sulforhodamine B assay.
The nature of assay [1]: Cytotoxicity against human Hs 578T cells assessed as growth inhibition at 10 uM after 48 hrs by sulforhodamine B assay.
The test system of another assay is BT-549. Kind of assay: Cytotoxicity against human BT-549 cells assessed as growth inhibition at 10 uM after 48 hrs by sulforhodamine B assay.
Another assay deals with T47D. Kind of assay: Cytotoxicity against human T47D cells assessed as growth inhibition at 10 uM after 48 hrs by sulforhodamine B assay.
For a further assay, the system named is MDA-MB-468. Kind of assay: Cytotoxicity against human MDA-MB-468 cells assessed as growth inhibition at 10 uM after 48 hrs by sulforhodamine B assay.
The next assay concerns CCRF-CEM. Kind of assay: Cytotoxicity against human CCRF-CEM cells assessed as growth inhibition at 10 uM after 48 hrs by sulforhodamine B assay.
In a further assay the test system is NCI-H522. Kind of assay: Cytotoxicity against human NCI-H522 cells assessed as growth inhibition at 10 uM after 48 hrs by sulforhodamine B assay.
For a further assay, the system named is SK-MEL-2. Kind of assay: Cytotoxicity against human SK-MEL-2 cells assessed as growth inhibition at 10 uM after 48 hrs by sulforhodamine B assay.
For a further assay, the system named is SK-OV-3. Kind of assay: Cytotoxicity against human SK-OV-3 cells assessed as growth inhibition at 10 uM after 48 hrs by sulforhodamine B assay.
In a further assay the test system is A498. Kind of assay: Cytotoxicity against human A498 cells assessed as growth inhibition at 10 uM after 48 hrs by sulforhodamine B assay.
A further assay deals with RXF 393. Kind of assay: Cytotoxicity against human RXF 393 cells assessed as growth inhibition at 10 uM after 48 hrs by sulforhodamine B assay.
In a further assay the test system is Malme-3M. Kind of assay: Cytotoxicity against human MALME-3M cells assessed as growth inhibition at 10 uM after 48 hrs by sulforhodamine B assay.

Regarding `O=S(=O)(Oc1ccc(/C=N/NC(=S)Nc2ccccc2)cc1)C(F)(F)C(F)(F)C(F)(F)C(F)(F)F`, the inhibition of growth at 10 µM in the assay on UACC-257 was 14.3%; in the assay on UO-31 it was 11.8%; with MCF7 it was 14.2%.
For the compound `COC(=O)/C=C1\S/C(=N\N=C\c2ccc(C(F)(F)F)cc2)N(c2ccccc2)C1=O`, the inhibition of growth at 10 µM was found to be 16.7% in the assay with HL-60(TB); 21.4% with K562; 12.8% with MOLT-4; 19.6% in the assay on SR; 12.4% with A549; 36.6% with HOP-62. Further, the inhibition of growth at 10 µM worked out at 12% in the assay with HOP-92; 10.1% with NCI-H23; 32.4% in the assay on HCT-116; 19.8% in the assay on SF-268; 16.6% in the assay with SF-295; 21% with SF-539. The inhibition of growth at 10 µM came to 25.8% with SNB-19; 39.3% in the assay on SNB-75; 29.2% in the assay with U-251; 19.9% in the assay on LOX IMVI; 18.4% with UACC-62; 26.6% in the assay on OVCAR-8. In addition, the inhibition of growth at 10 µM in the assay with NCI/ADR-RES turned out to be 11.5%; in the assay on 786-0 it was 11.1%; in the assay with ACHN it was 40.1%; with CAKI-1 it was 28%; in the assay on SN12C, 24.1%; with UO-31, 18.3%. Moreover, the inhibition of growth at 10 µM in the assay with MCF7 came to 25.2%; in the assay on MDA-MB-231, 19.8%; in [1], 37.6%; in the assay on BT-549, 13.6%; in the assay with T47D, 20.4%; in the assay with MDA-MB-468, 24.6%.
Consider `COC(=O)/C=C1\S/C(=N\N=C\c2ccc(OS(=O)(=O)C(F)(F)C(F)(F)C(F)(F)C(F)(F)C(F)(F)C(F)(F)C(F)(F)C(F)(F)F)cc2)N(c2ccccc2)C1=O`, for which the inhibition of growth at 10 µM stood at 22.1% with CCRF-CEM; 27% in the assay on HOP-62; 25.1% in the assay on HOP-92; 22.1% in the assay on NCI-H522; 10.5% with HCT-116; 19.3% in the assay with SF-268. Moreover, the inhibition of growth at 10 µM with SF-295 amounted to 22%; with SF-539 it was 12.1%; with SNB-19 it was 36.3%; with SNB-75, 37.8%; in the assay on U-251 it was 36.2%; in the assay with SK-MEL-2, 16.9%. Also, the inhibition of growth at 10 µM with UACC-62 is 13.5%; in the assay with SK-OV-3 it was 14.1%; with 786-0, 26.6%; in the assay with A498 it was 12.9%; with ACHN it was 11.6%; in the assay with CAKI-1, 20%. Moreover, the inhibition of growth at 10 µM turned out to be 39.7% with RXF 393, 11.2% in the assay with MCF7, 15.2% in the assay with MDA-MB-231 and 34.1% in assay [1].
Turning to `O=S(=O)(Oc1ccc(-c2nnc(Nc3ccccc3)s2)cc1)C(F)(F)C(F)(F)C(F)(F)C(F)(F)C(F)(F)C(F)(F)C(F)(F)C(F)(F)F`, the inhibition of growth at 10 µM in the assay on CCRF-CEM was found to be 12.1%; with Malme-3M it was 11.7%; in the assay on UO-31 it was 19.4%; with BT-549, 12.9%.

For the origin of these results see ChEMBL document CHEMBL5055672, “Design, Synthesis, Biological Evaluation, and Computational Studies of Novel Fluorinated Candidates as PI3K Inhibitors: Targeting Fluorophilic Binding Sites” (J Med Chem, 2021).
